Source: PMC12208134, “Structure-activity relationships of 1,5-dihydro-2H-benzo[b][1,4]diazepine-2,4(3H)-diones as inhibitors of Trypanosoma cruzi” (RSC medicinal chemistry, 2025)
Values after ≈ are worked out from the molar mass of the structure shown. Values joined by “and” are separate entries in the source; they are usually repeats but may differ in a detail not shown here. Equal entries are not always repeated. Where two headings read alike, the source gives them in different places.

Columns and labels:
[1] = test system: intracellular T. cruzi amastigotes; assay: T. cruzi intracellular potency assay (high content imaging); type: cell-based, Trypanosoma cruzi; parameters: key to Max Effect (T. cruzi): % inhibition; 0% = DMSO control, 100% = 16 μM nifurtimox control; conditions: for Emax / IC50 / EC50: Trypanosoma cruzi; for Emax / Hill slope (T. cruzi) / Max Effect (T. cruzi) / pEC50 (T. cruzi) / EC50: individual replicate; for Emax: read-out: Max Effect (T. cruzi); for IC50: read-out: T. cruzi pIC50 (converted); for EC50: read-out: pEC50 (T. cruzi) (converted)
Experimental: (§1) T. cruzi intracellular potency and rate-of-kill assay (high content imaging) ^1
(§2) Silvio X10/7 T. cruzi trypomastigotes were incubated at 37°C 5% CO2 with 1.6×10^7 Vero cells overnight at MOI10 in MEM media supplemented with 10% foetal calf serum (FCS). Extracellular parasites were removed by aspirating cell culture supernatant, and washing Vero monolayer with 10 ml serum-free MEM three times. Vero cells were then harvested by trypsinization and dispensed at 2×10^3 per well (50 μl in MEM/ 1% FCS) into 384 well plates pre-stamped with compounds in DMSO using automated washer/ dispenser EL406 and liquid handling software (Biotek). Plates were then incubated at 37°C in 5% CO2 for 96 h. For rate-of-kill determination, plates were incubated for 24h, 48h, 72h and 96h.
(§3) Plates were subsequently fixed with 4% formaldehyde for 20 min, permeabilised and stained with 5 μgml^-1 Hoechst 33342/ 0.1% Triton/ PBS Thimerosal 20 min. Automated imaging was performed by an Operetta high content imaging system using 20x objective (PerkinElmer). Images were analysed with an algorithm generated in Columbus (PerkinElmer) to segment Vero cell nuclei, Vero cell cytoplasm and parasite nuclei/ kinetoplasts, reporting number of amastigotes per Vero cell, percent infected Vero cells and total number of Vero cells. Compound potencies against T. cruzi parasites were calculated in IDBS Activitybase using percent infected Vero cells and Vero toxicity curves generated using number of host cells. All data was normalised to percent inhibition based on the raw data values for the 100% effect control (16 μM nifurtimox) and the 0% effect control (DMSO) on each plate at each time point. Curve fitting was carried out using a four-parameter equation as previously described. ^2 For rate-of-kill experiments the percent infected cells at each compound concentration was plotted against time.

[2] = Mouse liver microsomal intrinsic clearance; type: in vitro ADME
[3] = Human liver microsomal intrinsic clearance; type: in vitro ADME
[4] = ChromLogD pH7.4 (chromatographic hydrophobicity index), PFI, LLE; conditions: for PFI: ChromLogDpH7.4 + no. aromatic rings
Text: [23] Alongside PFI, LLE (ligand lipophilic efficiency, T. cruzi pIC50 - ChromLogDpH7.4) was also monitored to identify changes where the impact on potency was not driven by increasing lipophilicity.

[5] = Kinetic aqueous solubility by CAD; type: physicochemical
host Vero cell = assay: Vero host cell toxicity in the intracellular T. cruzi assay; type: cell-based; parameters: key to Max Effect (Vero): % inhibition; 0% = DMSO control, 100% = 16 μM nifurtimox control; conditions: for EC50 / IC50: Chlorocebus sabaeus; for EC50: Vero; for EC50 / Max Effect (Vero) / pEC50 (Vero): individual replicate; for IC50: read-out: Vero pIC50 (converted)
Experimental: as §1, §2, §3

[6] = intracellular amastigotes in Vero cells, 96 h, mean of N ≥ 3
[7] = kinetic from dmso stock, kinetic, CAD, read-out: Aqueous solubility

COc1ccc(CN2C(=O)C(N)C(=O)N(c3ccccc3)c3c(F)cccc32)cc1 (centres unmarked) [Compound 21, 3-amino-6-fluoro-1-(4-methoxybenzyl)-5-phenyl-1,5-dihydro-2H-benzo[b][1,4]diazepine-2,4(3H)-dione]
Emax [1]: 81%
IC50 [1, 6]: 1.26 µM
Hill slope (T. cruzi) [1]: 13.4 and 21.5 and 12.3 and 1.4 and 2.3 and 17.2
Max Effect (T. cruzi) [1]: 88 and 90 and 85
pEC50 (T. cruzi) [1]: 5.8 and 6.3 and 5.7
MLM CLi ([2]; mouse, microsomes): 9.0 mL/min/g
HLM CLi ([3]; human, microsomes): <0.4 mL/min/g
PFI [4]: 7.3
chromatographic logD ([4]; pH 7.4): 4.3
solubility ([5]; kinetic from dmso stock): > 217 µM
EC50 (host Vero cell): > 50.1 µM
IC50 (host Vero cell; host Vero cell): > 50.1 µM
Max Effect (Vero) (host Vero cell): -0.364 and 17 and 0.947 and 18 and 21 and 12

3-amino-6-fluoro-1-(4-methoxybenzyl)-5-(4-methoxyphenyl)-1,5-dihydro-2H-benzo[b][1,4]diazepine-2,4(3H)-dione [Compound 22]
Hill slope (T. cruzi) [1]: 11.8 and 10.3 and 3.4 and 21.3
Max Effect (T. cruzi) [1]: 77 and 98 and 83 and 82
pEC50 (T. cruzi) [1]: 7.2
T. cruzi pIC50 [1, 6]: 7.2 ± 0.0
MLM CLi ([2]; mouse liver microsomes): 2.2 mL/min/g
HLM CLi ([3]; human liver microsomes): <0.4 mL/min/g
PFI [4]: 7.2
Chrom LogDpH7.4 ([4]; pH 7.4): 4.2
solubility ([5]; kinetic, CAD, read-out: Aqueous solubility): 168 µM
Vero pIC50 (host Vero cell; host Vero cell): <4.3
Max Effect (Vero) (host Vero cell): 3.52 and 24 and 2 and 12
pEC50 (Vero) (host Vero cell): < 4.3

Cc1ccc(NC(=O)NC2CNc3ccccc3N(c3ccccc3)C2=O)cc1 (centres unmarked) [Compound 11, 1-(2-oxo-1-phenyl-2,3,4,5-tetrahydro-1H-benzo[b][1,4]diazepin-3-yl)-3-(p-tolyl)urea]
Emax [1]: 67%
EC50 [1]: 25.1 µM
IC50 [1, 6]: 25.1 µM
Hill slope (T. cruzi) [1]: 1.3 and 2.0 and 1.7 and 2.2
Max Effect (T. cruzi) [1]: 77 and 75 and 73
pEC50 (T. cruzi) [1]: 4.7
MLM CLi ([2]; mouse liver microsomes): 4.0 mL/min/g
HLM CLi ([3]; human liver microsomes): <0.4 mL/min/g
PFI [4]: 8.4
chromatographic logD ([4]; pH 7.4): 5.4
solubility [5, 7]: < 1 µM
EC50 (host Vero cell): > 50.1 µM
IC50 (host Vero cell; host Vero cell): > 50.1 µM
Max Effect (Vero) (host Vero cell): 20 and 21 and 9 and 10

CC(C)N(C(=O)CN1C(=O)C(N)C(=O)N(c2ccccc2)c2ccccc21)c1ccccc1 (single isomer, unassigned) [14-Ent 2, 2-(3-amino-2,4-dioxo-5-phenyl-2,3,4,5-tetrahydro-1H-benzo[b][1,4]diazepin-1-yl)-N-isopropyl-N-phenylacetamide]
Hill slope (T. cruzi) [1]: 85.9 and 4.0
Max Effect (T. cruzi) [1]: 82
pEC50 (T. cruzi) [1]: 6.7 and 6.6
Max Effect (Vero) (host Vero cell): 5.45 and 20
pEC50 (Vero) (host Vero cell): < 4.3

Cc1ccc(NC(=O)NC2C(=O)Nc3ccccc3N(C(C)C)C2=O)cc1 (centres unmarked) [Compound 7, 1-(1-isopropyl-2,4-dioxo-2,3,4,5-tetrahydro-1H-benzo[b][1,4]diazepin-3-yl)-3-(p-tolyl)urea]
EC50 [1]: 20 µM
IC50 [1, 6]: 12.6 µM
Hill slope (T. cruzi) [1]: 2.0 and 0.8 and 3.3 and 2.1
Max Effect (T. cruzi) [1]: 86 and 58 and 83 and 89
pEC50 (T. cruzi) [1]: 4.9 and 5.0
MLM CLi ([2]; mouse liver microsomes): 1.8 mL/min/g
HLM CLi ([3]; human liver microsomes): <0.4 mL/min/g
PFI [4]: 6.2
chromatographic logD ([4]; pH 7.4): 4.2
solubility [5, 7]: 25 µM (≈ 9.16 µg/mL)
EC50 (host Vero cell): > 50.1 µM
IC50 (host Vero cell; host Vero cell): > 50.1 µM
Max Effect (Vero) (host Vero cell): 25 and 30 and 20 and -11

COc1ccc(CN2C(=O)CC(=O)N(c3ccc(OC)cc3)c3ccccc32)cc1 [Compound 23, 1-(4-methoxybenzyl)-5-(4-methoxyphenyl)-1,5-dihydro-2H-benzo[b][1,4]diazepine-2,4(3H)-dione]
EC50 [1]: > 50.1 µM
IC50 [1, 6]: > 50.1 µM
Max Effect (T. cruzi) [1]: 39 and 11 and 27 and 29
MLM CLi ([2]; mouse, microsomes): 80 mL/min/g
HLM CLi ([3]; human, microsomes): >37 mL/min/g
PFI [4]: 8.1
chromatographic logD ([4]; pH 7.4): 5.1
solubility ([5]; kinetic from dmso stock): 175 µM (≈ 70.4 µg/mL)
EC50 (host Vero cell): > 50.1 µM
IC50 (host Vero cell; host Vero cell): > 50.1 µM
Max Effect (Vero) (host Vero cell): 2.11 and 2.25 and 31 and 32
